Key:
[1] = Tolerance of Fluralaner in laying hens (Example 1); format: in vivo, chickens; details: 0.5-2 mg/kg BW via medicated drinking water
Method: Experimental animals were chickens, particularly laying hens of about 30 weeks old. These were housed in a standard poultry house. Apparently healthy birds were assigned in a random way to treatment groups kept separately, and labelled individually. The birds were kept under natural light, and were given several days for acclimatization; drinking water consumption in each group was measured on three days prior to administration to calculate the average daily water consumption. Medicated water was prepared by diluting a concentrated Fluralaner solution (10 mg/ml) to the desired concentration of Fluralaner in regular tap water (hypochlorite <0.5 ppm). […]
The dose to be administered was calculated based on average body weights of each treatment group, measured one day before treatment (day −1, day 6). A concentrated Fluralaner solution was diluted in the drinking water to prepare medicated drinking water ready for consumption, via the following dosing regimen: • The volume of medicated water offered per group on day 0 (group D also on day 7) was approximately 50% of the calculated mean daily water intake measured previously in the respective group in order to ensure consumption of the full dose. • Once all medicated water was consumed the other 50% volume of the mean daily water intake was supplied as unmedicated tap water in the same drinker.

[2] = system: Northern fowl mite (O. sylviarum); experiment: Efficacy of Fluralaner in medicated drinking water against Northern fowl mite infestation of laying hens; format: in vivo, Ornithonyssus sylviarum
Method: No vitamin E was present in the concentrated Fluralaner solution used to prepare the medicated drinking water. The effectivity of an oral dosing regimen of Fluralaner was tested by administering medicated drinking water (via gavage) to laying hens, in 2 repeated doses of 0.25, 0.5 or 1.0 mg/kg body weight, administered 7 days apart, and challenging them with infestation by Northern fowl mites, via source birds and natural infestation. The birds were kept in separate pens, at 11 birds per pen. The statistical analysis of results was based on mite count from each bird in the study, using pen as a random factor in the model, and mite counts were performed and recorded for individual birds. Mite vent count reduction of the treated groups compared to the control group was the primary efficacy criterion.

[3] = Prevention of degradation by oxidizing sanitizer (hypochlorite) in medicated drinking water; format: physicochemical
Method: The Fluralaner level was determined using UHPLC. The alpha-tocopherol used was alpha-tocopherol EP (Fluka).
To prepare the test samples, the required amounts of Transcutol and Tween were measured, combined in a beaker at room temperature, and mixed magnetically. Next, when no protector was added, the required amount of Fluralaner was weighed, added, and mixed until complete dissolution, which usually required about 10 minutes, at 70% speed. […] The complete dissolution was verified visually. Next the density of the resulting solution was checked with a Densimeter, at 20° C.
To test the capacity of the different protectors to prevent degradation of Fluralaner in medicated drinking water by an oxidising sanitizer, samples of the pharmaceutical composition as prepared above were diluted to different concentrations, and incubated with different amounts of hypochlorite. Concentrations of Fluralaner in medicated drinking water used were: 1, 5, and 10 μg/ml.
The hypochlorite used was from a 13% sodium hypochlorite solution (Acros Organics), which was prepared into samples with a concentration of hypochlorite of: 0, 0.5, 2, 5, or 10 ppm, wherein 1 ppm equals 20 μM. Samples without hypochlorite served as positive controls. While the dilutions of hypochlorite were made in purified water, one additional sample at 5 ppm hypochlorite was prepared in standard tap water (Angers, France). Control samples were tested at day zero, all others were tested after an incubation for 7 days at 40° C./75% RH.
The concentration of protector in the test sample was dependent of the dilution factor of the concentrated Fluralaner composition applied: 1:10,000, 1:2000, or 1:1000, respectively.

[4] = Variation of concentration of vitamin E, Fluralaner in 5 ppm hypochlorite; format: physicochemical; details: used at 1:10.000; for Reduction t = 0 to t = 7 in %: 5 ppm ClO-, 40° C./75% RH
Method: While in Example 4.3 alpha-tocopherol was used in the pharmaceutical composition at 8.2% w/w, it was now tested at 80% of that value, namely at 6.6% w/w. Pharmaceutical compositions according to the invention were prepared, containing either 8.2 or 6.6% w/w alpha-tocopherol. Also one base composition was prepared without protector. These were diluted 1:10.000 to prepare medicated drinking waters with 1 μg/ml Fluralaner. Next hypochlorite was added to 5 ppm, and 20 ml samples were filled-out in 50 ml glass vials, sealed with a rubber stopper, and stored for 7 days at 40° C./75% RH. The amount of Fluralaner of the three samples was measured at t=0 and at t=7 days using UHPLC. The concentration of the vitamin E in the final test sample was 1:10,000 of 6.6 or 8.2% w/w.

[5] = Residues and withdrawal time in treated birds; format: in vivo; details: treated layer birds, oral uptake
[6] = Conc. Fluralaner 1 μg/ml, hypochlorite 0 ppm, T = 0
[7] = Conc. Fluralaner 1 μg/ml, hypochlorite 0 ppm, T = 7 d at 40° C./75% RH
[8] = Conc. Fluralaner 1 μg/ml, hypochlorite 0.5 ppm, T = 7 d at 40° C./75% RH
[9] = Conc. Fluralaner 1 μg/ml, hypochlorite 2 ppm, T = 7 d at 40° C./75% RH
[10] = Conc. Fluralaner 1 μg/ml, hypochlorite 5 ppm (tapw.), T = 7 d at 40° C./75% RH
[11] = Conc. Fluralaner 1 μg/ml, hypochlorite 5 ppm, T = 7 d at 40° C./75% RH
[12] = Conc. Fluralaner 1 μg/ml, hypochlorite 10 ppm, T = 7 d at 40° C./75% RH
[13] = Conc. Fluralaner 5 μg/ml, hypochlorite 0 ppm, T = 0
[14] = Conc. Fluralaner 5 μg/ml, hypochlorite 0 ppm, T = 7 d at 40° C./75% RH
[15] = Conc. Fluralaner 5 μg/ml, hypochlorite 0.5 ppm, T = 7 d at 40° C./75% RH
[16] = Conc. Fluralaner 5 μg/ml, hypochlorite 2 ppm, T = 7 d at 40° C./75% RH
[17] = Conc. Fluralaner 5 μg/ml, hypochlorite 5 ppm (tapw.), T = 7 d at 40° C./75% RH
[18] = Conc. Fluralaner 5 μg/ml, hypochlorite 5 ppm, T = 7 d at 40° C./75% RH
[19] = Conc. Fluralaner 5 μg/ml, hypochlorite 10 ppm, T = 7 d at 40° C./75% RH
[20] = Conc. Fluralaner 10 μg/ml, hypochlorite 0 ppm, T = 0
[21] = Conc. Fluralaner 10 μg/ml, hypochlorite 0 ppm, T = 7 d at 40° C./75% RH
[22] = Conc. Fluralaner 10 μg/ml, hypochlorite 0.5 ppm, T = 7 d at 40° C./75% RH
[23] = Conc. Fluralaner 10 μg/ml, hypochlorite 2 ppm, T = 7 d at 40° C./75% RH
[24] = Conc. Fluralaner 10 μg/ml, hypochlorite 5 ppm (tapw.), T = 7 d at 40° C./75% RH
[25] = Conc. Fluralaner 10 μg/ml, hypochlorite 5 ppm, T = 7 d at 40° C./75% RH
[26] = Conc. Fluralaner 10 μg/ml, hypochlorite 10 ppm, T = 7 d at 40° C./75% RH
[27] = Vitamin E 0 % w/w in pharm. comp.
[28] = Vitamin E 6.6 % w/w in pharm. comp.
[29] = Vitamin E 8.2 % w/w in pharm. comp.

Cc1cc(C2=NOC(c3cc(Cl)cc(Cl)c3)(C(F)(F)F)C2)ccc1C(=O)NCC(=O)NCC(F)(F)F (centres unmarked) [Fluralaner]
Tolerance in the hens [1]: well tolerated | Duration of efficacy after first treatment administration ([2]; 0.25 mg/kg BW dose group (2 doses, 7 days apart)): up to 19 days | Duration of efficacy after first treatment administration ([2]; 0.5 mg/kg BW dose group (2 doses, 7 days apart)): ≤ 22 days | Duration of efficacy after first treatment administration ([2]; 1.0 mg/kg BW dose group (2 doses, 7 days apart)): ≤ 22 days | Efficacy against O. sylviarum ([2]; 2 single doses of 0.25, 0.5, or 1 mg/kg BW, 7 days apart, oral): significant efficacy | Reductions in mite vent counts, onset ([2]; all treated groups, beginning at day 1): statistically significant reductions | Efficacy against Northern fowl mites (reduction in mite vent count) ([2]; all treated groups, for at least 19 days, untreated source birds in same pen): > 90% | Fluralaner content in medicated drinking water; alpha-tocopherol as protector [3, 6]: 0.91 µg/mL | Fluralaner content in medicated drinking water; no protector [3, 6]: 0.93 µg/mL | Fluralaner content in medicated drinking water; alpha-tocopherol as protector [3, 7]: 0.89 µg/mL | Fluralaner content in medicated drinking water; no protector [3, 7]: 0.92 µg/mL | Fluralaner content in medicated drinking water; alpha-tocopherol as protector [3, 8]: 0.91 µg/mL | Fluralaner content in medicated drinking water; no protector [3, 8]: 0.91 µg/mL | Fluralaner content in medicated drinking water; alpha-tocopherol as protector [3, 9]: 0.92 µg/mL | Fluralaner content in medicated drinking water; no protector [3, 9]: 0.91 µg/mL | Fluralaner content in medicated drinking water; alpha-tocopherol as protector [3, 10]: 0.86 µg/mL | Fluralaner content in medicated drinking water; no protector [3, 10]: 0.13 µg/mL | Fluralaner content in medicated drinking water; alpha-tocopherol as protector [3, 11]: 0.89 µg/mL | Fluralaner content in medicated drinking water; no protector [3, 11]: 0.29 µg/mL | Fluralaner content in medicated drinking water; alpha-tocopherol as protector [3, 12]: 0.05 µg/mL | Fluralaner content in medicated drinking water; no protector [3, 12]: <LoQ | Fluralaner content in medicated drinking water; alpha-tocopherol as protector [3, 13]: 5.52 µg/mL | Fluralaner content in medicated drinking water; no protector [3, 13]: 5.50 µg/mL | Fluralaner content in medicated drinking water; alpha-tocopherol as protector [3, 14]: 5.45 µg/mL | Fluralaner content in medicated drinking water; no protector [3, 14]: 5.51 µg/mL | Fluralaner content in medicated drinking water; alpha-tocopherol as protector [3, 15]: 5.52 µg/mL | Fluralaner content in medicated drinking water; no protector [3, 15]: 5.52 µg/mL | Fluralaner content in medicated drinking water; alpha-tocopherol as protector [3, 16]: 5.52 µg/mL | Fluralaner content in medicated drinking water; no protector [3, 16]: 5.50 µg/mL | Fluralaner content in medicated drinking water; alpha-tocopherol as protector [3, 17]: 5.42 µg/mL | Fluralaner content in medicated drinking water; no protector [3, 17]: 4.43 µg/mL | Fluralaner content in medicated drinking water; alpha-tocopherol as protector [3, 18]: 5.49 µg/mL | Fluralaner content in medicated drinking water; no protector [3, 18]: 5.31 µg/mL | Fluralaner content in medicated drinking water; alpha-tocopherol as protector [3, 19]: 5.56 µg/mL | Fluralaner content in medicated drinking water; no protector [3, 19]: 1.54 µg/mL | Fluralaner content in medicated drinking water; alpha-tocopherol as protector [3, 20]: 10.14 µg/mL | Fluralaner content in medicated drinking water; no protector [3, 20]: 10.10 µg/mL | Fluralaner content in medicated drinking water; alpha-tocopherol as protector [3, 21]: 10.01 µg/mL | Fluralaner content in medicated drinking water; no protector [3, 21]: 10.07 µg/mL | Fluralaner content in medicated drinking water; alpha-tocopherol as protector [3, 22]: 10.10 µg/mL | Fluralaner content in medicated drinking water; no protector [3, 22]: 10.03 µg/mL | Fluralaner content in medicated drinking water; alpha-tocopherol as protector [3, 23]: 10.10 µg/mL | Fluralaner content in medicated drinking water; no protector [3, 23]: 10.03 µg/mL | Fluralaner content in medicated drinking water; alpha-tocopherol as protector [3, 24]: 9.94 µg/mL | Fluralaner content in medicated drinking water; no protector [3, 24]: 8.69 µg/mL | Fluralaner content in medicated drinking water; alpha-tocopherol as protector [3, 25]: 9.99 µg/mL | Fluralaner content in medicated drinking water; no protector [3, 25]: 9.97 µg/mL | Fluralaner content in medicated drinking water; alpha-tocopherol as protector [3, 26]: 10.05 µg/mL | Fluralaner content in medicated drinking water; no protector [3, 26]: 5.05 µg/mL | Fluralaner conc. after incubation in 5 ppm ClO- at 40° C./75% RH, for t = 0 d [4, 27]: 0.80 µg/mL | Fluralaner conc. after incubation in 5 ppm ClO- at 40° C./75% RH, for t = 7 d [4, 27]: 0.15 µg/mL | Reduction t = 0 to t = 7 in % [4, 27]: 81% | Fluralaner conc. after incubation in 5 ppm ClO- at 40° C./75% RH, for t = 0 d [4, 28]: 0.91 µg/mL | Fluralaner conc. after incubation in 5 ppm ClO- at 40° C./75% RH, for t = 7 d [4, 28]: 0.49 µg/mL | Reduction t = 0 to t = 7 in % [4, 28]: 46% | Fluralaner conc. after incubation in 5 ppm ClO- at 40° C./75% RH, for t = 0 d [4, 29]: 0.90 µg/mL | Fluralaner conc. after incubation in 5 ppm ClO- at 40° C./75% RH, for t = 7 d [4, 29]: 0.49 µg/mL | Reduction t = 0 to t = 7 in % [4, 29]: 46% | Residue levels in eggs [5]: far below the MRL value

— patent publication US11179372B2, “Isoxazoline solution containing vitamin E for use with sanitized drinking water” (Intervet Inc., priority 2015, dated 2021)
